Data reported in patent US9724338B2, “Methods of using (+)-1,4-dihydro-7-[(3S,4S)-3-methoxy-4-(methylamino)-1-pyrrolidinyl]-4-OXO-1-(2-thiazolyl)-1,8-naphthyridine-3-carboxylic acid for treatment of antecedent hematologic disorders” (SUNESIS PHARMACEUTICALS, INC., priority 2007, dated 2017).

Assays:
[1] = Solubility of SNS-595 in compositions for injection or intravenous infusion (Example 1); format: physicochemical; settings: Acidic compositions (<pH 4)
From the text: The resulting composition is also suitable for lyophilization. The lyophilized form is then reconstituted with sterile water to the appropriate concentration prior to use.

[2] = tested on: MDS that had transformed to refractory CMML (progressed to AML); test: Clinical study: treatment with SNS-595 of a patient with MDS transformed to refractory CMML (Example 2); format: in vivo, human; settings: 72 mg/m^2 once per week for three weeks; for Peripheral Blasts: slow IV push
Description: A patient with MDS that had transformed to refractory CMML was enrolled in this study. The patient was diagnosed about 26 months prior to the study and was given 8 cycles of azacitadine (Vidaza®) about 10 months prior to the study. They were then treated with mitoxantrone+VP16 for 1 cycle, about 4 months prior to the study. […] The patient had initial marrow blast count of 39%. The following observations were noted on days 15 and 35.

[3] = tested on: relapsed CMML (transformed to AML); test: Clinical study: treatment with SNS-595 of a patient with relapsed CMML (Example 3); format: in vivo, human; settings: 50 mg/m^2 twice a week; for Marrow blasts: slow IV push
Description: A patient with relapsed CMML (transformed to AML) was enrolled. The patient was diagnosed about 17 months prior to the study, was treated with 1 cycle of a Southwest Oncology Group (SWOG) regimen after diagnosis. They were given 4 cycles of azacitidine (Vidaza®) about 14 months prior to the study and 1 cycle of decitabine, about 6 months before the study.

[4] = tested on: advanced or refractory acute leukemias; test: Clinical study: dose-escalating treatment of acute leukemia with SNS-595 (Example 4); format: in vivo, human
From the text: Minimum cycle length was 42 days for Arm A and 39 days for Arm B, respectively. Additional cycles were permitted if patients achieved stable disease or better. […] Pre- and post-dose bone marrow aspirates were obtained from a subset of patients to assess biomarkers.

[5] = Arm A, weekly x3, dose escalation to 90 mg/m^2

CN[C@H]1CN(c2ccc3c(=O)c(C(=O)O)cn(-c4nccs4)c3n2)C[C@@H]1OC [SNS-595, (+)-1,4-dihydro-7-[(3S,4S)-3-methoxy-4-(methylamino)-1-pyrrolidinyl]-4-oxo-1-(2-thiazolyl)-1,8-naphthyridine-3-carboxylic acid]
Solubility [1]: increased solubility | Clinical outcome of treatment ([2]; one patient): clinical benefit with reduction in splenomegaly and blast counts | Ultimate disease status ([2]; one patient): progressive disease | White blood cell (WBC) count, earlier value ('was') ([2]; Around Day 35, before rise with Necrotizing fasciitis (NF) infection): 7000 | Absolute neutrophil count (ANC) ([2]; Around Day 35): 3139 | Peripheral Blasts ([2]; Around Day 35, one patient): 33% | White blood cell (WBC) count ([2]; Around Day 35, patient had Necrotizing fasciitis (NF) infection): 16000 | Absolute neutrophil count (ANC) ([2]; Day 15): 94 | White blood cell (WBC) count ([2]; Day 15): 600 | Peripheral Blasts ([2]; Day 15, one patient): No blasts | Clinical outcome of treatment ([3]; one patient): clinical benefit (i.e. hematological improvement) with reduction in blast counts | Absolute neutrophil count (ANC) ([3]; At the time of undergoing treatment with third cycle): 1600 | Marrow blasts ([3]; Post Cycle 1, baseline 20% blasts): 8% | Circulating blasts ([3]; Post Cycle 2): 4% | Marrow blasts ([3]; Post Cycle 2): 1% | Circulating blasts ([3]; Post Cycle 3): 8% | Circulating blasts ([3]; Post Cycle 4): 12% | Dose-limiting toxicity (DLT) ([4]; Arm A, 27 mg/m^2 weekly dose (also had progressive disease)): G4 myelosuppression | Complete Responses (CR) ([4]; Arm A, 50 mg/m^2 dose level): 1 patient | Dose-limiting toxicity (DLT) ([4]; Arm A, 50 mg/m^2 weekly dose): prolonged myelosuppression | Response of a patient with AML and splenomegaly ([4]; Arm A, 72 mg/m^2): clinical benefit with reduction in splenomegaly and blast counts | Dose-limiting toxicity (DLT) ([4]; Arm A, 72 mg/m^2 weekly dose): bowel obstruction | Clinical activity: reductions in marrow blasts to ≦5% ([4]; Arm A, doses at or above 50 mg/m^2): 5 patients | Drug-related G3 & 4 events: diarrhea ([4]; Arm A, weekly x3): 1 patient | Drug-related G3 & 4 events: stomatitis ([4]; Arm A, weekly x3): 3 patients | Non-dose-limiting toxicities (non-DLTs) [4, 5]: nausea/vomiting and diarrhea | Number of dose-limiting toxicities (DLTs) observed [4, 5]: Three | Clinical activity: reductions in marrow blasts to ≦5% ([4]; Arm B, 40 mg/m^2): 1 patient | Complete Responses (CR) ([4]; Arm B, 40 mg/m^2 level): 1 patient | Response of a patient with AML and splenomegaly ([4]; Arm B, 50 mg/m^2 dose level, patient had G3 mucositis): partial response | G3 mucositis ([4]; Arm B, twice weekly x2, 40 mg/m^2): two patients out of 11 | Dose-limiting toxicity (DLT) of Grade (G) 3 mucositis ([4]; Arm B, twice weekly x2, 50 mg/m^2 dose level): 3 patients | Tolerability in patients with advanced leukemias ([4]; Arms A and B): well-tolerated
